# Measurements taken from PMC8317927 (Journal of Enzyme Inhibition and Medicinal Chemistry, 2021).
# Several values for one entry are separate records, joined by “and”; a condition that tells them apart may be missing. Equal values may be shown once.
# Test system: HaCaT cells
# Test: Cellular reactive oxygen species (ROS), H2O2-induced, DCFDA probe
# Format: cell-based, human
# Settings: 10 µg/mL for 24 h, then H2O2 200 µM for 1 h
# Description: HaCaT cells were seeded in 96-well plates at 6 × 10^3 cells per well and allowed to attach for 12 h. Then the cells were incubated with test samples (10 µg/mL) for 24 h. Next, the cell culture medium was removed and fresh phosphate buffer solution (PBS; 100 µL) containing a fluorescent probe 2′,7′-dichlorofluorescin diacetate (DCFDA; 20 µM) was added to the cells and incubated for 20 min. Then the cells were treated with H2O2 (100 µL; 200 µM) for 1 h followed by measuring the fluorescence intensity of each well with excitation and emission wavelengths of 485 and 525 nm, respectively, using a SpectraMax M2 plate reader.
row,Structure (SMILES),decrease of ROS level vs H2O2-exposed cells [%]
1,CC1(C)CCC2(C(=O)O)CCC3(C)C(=CCC4C5(C)Cc6c([nH]c7c(F)cc(F)cc67)C(C)(C)C5CCC43C)C2C1 (stereo not shown) [Compound 6c],23.6

# Test system: HAase
# Test: Lineweaver-Burk plot, enzyme kinetics of HAase inhibition
# Format: biochemical, bovine
# Settings: four concentrations (5–40 µg/mL); HA 0.125–2.0 µM (6c), 0.2–1.0 µM (6g)
# Description: The inhibition type of test compounds was determined by the Lineweaver-Burk plots.
row,Structure (SMILES),Inhibition type (Lineweaver-Burk plot)
1,CC1(C)CCC2(C(=O)O)CCC3(C)C(=CCC4C5(C)Cc6c([nH]c7c(F)cc(F)cc67)C(C)(C)C5CCC43C)C2C1 (stereo not shown) [Compound 6c],mixed type of competitive and non-competitive inhibitions
2,CC1(C)CCC2(C(=O)O)CCC3(C)C(=CCC4C5(C)Cc6c([nH]c7c(Cl)cccc67)C(C)(C)C5CCC43C)C2C1 (stereo not shown) [Compound 6g],mixed type of competitive and non-competitive inhibitions

# Target: T1, bovine testicular HAase (Bos taurus, UniProt Q2YDK3)
# T1 sequence (Q2YDK3 36-553): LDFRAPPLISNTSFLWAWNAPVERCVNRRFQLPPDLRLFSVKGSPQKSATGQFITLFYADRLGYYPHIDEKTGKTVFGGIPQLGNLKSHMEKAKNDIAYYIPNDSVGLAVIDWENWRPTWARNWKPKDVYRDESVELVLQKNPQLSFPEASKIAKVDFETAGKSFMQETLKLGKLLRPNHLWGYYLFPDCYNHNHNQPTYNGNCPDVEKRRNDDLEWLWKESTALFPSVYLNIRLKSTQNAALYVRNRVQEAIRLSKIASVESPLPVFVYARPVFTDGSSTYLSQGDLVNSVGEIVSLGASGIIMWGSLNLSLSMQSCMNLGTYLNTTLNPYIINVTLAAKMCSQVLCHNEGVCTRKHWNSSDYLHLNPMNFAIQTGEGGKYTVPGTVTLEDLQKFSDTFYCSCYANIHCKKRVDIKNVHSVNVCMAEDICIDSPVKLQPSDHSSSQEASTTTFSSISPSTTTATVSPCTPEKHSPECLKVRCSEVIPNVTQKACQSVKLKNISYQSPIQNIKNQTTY
# Test: Hyaluronidase inhibition assay
# Format: biochemical
# Settings: at 40 μg/mL
# Description: Inhibitory effect on bovine testicular HAase activity was evaluated using a reported method with minor modifications. It is noted that long HA chains and HAase may form of non-active complexes at low ionic condition, which can impede the catalytic activity of HAase and disrupt the HAase inhibition assay. This interference can be avoided by adding a positively charged protein to balance the ionic strength of the reaction system and recover the activity of HAase[24]. […] […] Then hyaluronic acid (HA; 100 μL) was added to the pre-incubated mixture at 37 °C for 45 min. […] The absorbance was then measured at a wavelength of 600 nm using a microplate reader (SpectraMax M2, Molecular Devices Corp., operated by SoftmaxPro v.4.6 software, Sunnyvale, CA, USA). Each sample was tested at least in three replicates. […] The IC50 value of each sample was determined by analysing its inhibition rates at different concentrations with a nonlinear regression algorithm by GraphPad Prism.
row,Structure (SMILES),Inhibition (%) of HAase enzyme activity
1,CC1(C)CCC2(C(=O)O)CCC3(C)C(=CCC4C5(C)Cc6c([nH]c7c([N+](=O)[O-])cccc67)C(C)(C)C5CCC43C)C2C1 (stereo not shown) [Compound 6a],100.9 ± 4.3%
2,CC1(C)CCC2(C(=O)O)CCC3(C)C(=CCC4C5(C)Cc6c([nH]c7c(F)cccc67)C(C)(C)C5CCC43C)C2C1 (stereo not shown) [Compound 6b],100.2% and 100.4 ± 2.4%
3,CC1(C)CCC2(C(=O)O)CCC3(C)C(=CCC4C5(C)Cc6c([nH]c7c(F)cc(F)cc67)C(C)(C)C5CCC43C)C2C1 (stereo not shown) [Compound 6c],86.3 ± 3.3%
4,Cc1cc(C)c2[nH]c3c(c2c1)CC1(C)C(CCC2(C)C1CC=C1C4CC(C)(C)CCC4(C(=O)O)CCC12C)C3(C)C (stereo not shown) [Compound 6d],93.5 ± 3.9%
5,CC1(C)CCC2(C(=O)O)CCC3(C)C(=CCC4C5(C)Cc6c([nH]c7ccc(Br)cc67)C(C)(C)C5CCC43C)C2C1 (stereo not shown) [Compound 6e],83.7 ± 3.3%
6,CC1(C)CCC2(C(=O)O)CCC3(C)C(=CCC4C5(C)Cc6c([nH]c7c(Br)cccc67)C(C)(C)C5CCC43C)C2C1 (stereo not shown) [Compound 6f],100.6 ± 3.6%
7,CC1(C)CCC2(C(=O)O)CCC3(C)C(=CCC4C5(C)Cc6c([nH]c7c(Cl)cccc67)C(C)(C)C5CCC43C)C2C1 (stereo not shown) [Compound 6g],98.1 ± 0.4%

# Same assay, conditions: at 40 μg/mL; read-out: Inhibition (%) of HAase enzyme activity
row,Structure (SMILES),inhibition at 40 µg/mL [%]
1,CC1(C)CCC23CC[C@]4(C)C(OC2=O)(C(F)CC2[C@@]5(C)CC[C@H](O)C(C)(C)C5CC[C@]24C)C3C1 (stereo partly shown) [Compound 3],12.7 ± 3.9
2,CC1(C)CCC23CC[C@]4(C)C(OC2=O)(C(F)CC2[C@@]5(C)CCC(=O)C(C)(C)C5CC[C@]24C)C3C1 (stereo partly shown) [Compound 4],37.3 ± 1.4

# Same assay, conditions: nonlinear regression of inhibition rates at five concentrations (1-40 µg/mL)
row,Structure (SMILES),IC50 on HAase enzyme activity [µg/mL]
1,CC1(C)CCC2(C(=O)O)CCC3(C)C(=CCC4C5(C)Cc6c([nH]c7c([N+](=O)[O-])cccc67)C(C)(C)C5CCC43C)C2C1 (stereo not shown) [Compound 6a],16.23
2,CC1(C)CCC2(C(=O)O)CCC3(C)C(=CCC4C5(C)Cc6c([nH]c7c(F)cccc67)C(C)(C)C5CCC43C)C2C1 (stereo not shown) [Compound 6b],12.58
3,CC1(C)CCC2(C(=O)O)CCC3(C)C(=CCC4C5(C)Cc6c([nH]c7c(F)cc(F)cc67)C(C)(C)C5CCC43C)C2C1 (stereo not shown) [Compound 6c],9.97
4,Cc1cc(C)c2[nH]c3c(c2c1)CC1(C)C(CCC2(C)C1CC=C1C4CC(C)(C)CCC4(C(=O)O)CCC12C)C3(C)C (stereo not shown) [Compound 6d],11.62
5,CC1(C)CCC2(C(=O)O)CCC3(C)C(=CCC4C5(C)Cc6c([nH]c7ccc(Br)cc67)C(C)(C)C5CCC43C)C2C1 (stereo not shown) [Compound 6e],11.60
6,CC1(C)CCC2(C(=O)O)CCC3(C)C(=CCC4C5(C)Cc6c([nH]c7c(Br)cccc67)C(C)(C)C5CCC43C)C2C1 (stereo not shown) [Compound 6f],10.14
7,CC1(C)CCC2(C(=O)O)CCC3(C)C(=CCC4C5(C)Cc6c([nH]c7c(Cl)cccc67)C(C)(C)C5CCC43C)C2C1 (stereo not shown) [Compound 6g],9.57

# Same assay, conditions: read-out: Inhibition (%) of HAase enzyme activity
row,Structure (SMILES),inhibition at 40 µg/mL [%]
1,"CC1(C)CC[C@]2(C(=O)O)CC[C@]3(C)C(=CC[C@@H]4[C@@]5(C)CC[C@H](O)C(C)(C)[C@@H]5CC[C@]43C)[C@@H]2C1 [Compound 1, Oleanolic acid, reference compound]",59.3 ± 2.4
2,CC1(C)CC[C@]2(C(=O)O)CC[C@]3(C)C(=CCC4[C@@]5(C)CCC(=O)C(C)(C)C5CC[C@]43C)C2C1 (stereo partly shown) [Compound 2],15.9 ± 4.3

# Test system: not listed separately
# Test: Cell viability, XTT assay
# Format: cell-based
# Settings: human, HaCaT keratinocyte cells
# Description: Human keratinocytes (HaCaT) cells were purchased from Sigma Aldrich Co. (St. Louis, MO, USA) and cultured in Dulbecco’s modified Eagle’s medium (DMEM; Life Technologies; Gaithersburg, MD, USA) with 10% fetal bovine serum (Gibico; Grand Island, NY, USA) at 37 °C in the presence of 5% CO2. The cell viability of HaCaT treated with or without OA and its derivatives was measured by the XTT assay according to manufacturer’s instructions (XTT Cell proliferation Kit II; Roche, USA). Briefly, HaCaT cells were seeded in 96-well plates at 5 × 10^3 cells per well and allowed to attach for 12 h. Then OA and its derivatives (100 µL; 10 µg/mL) were incubated with cells for 24 h, followed by adding the XTT reagent (50 µL; 0.3 mg/mL) in each well and incubated for 4 h. The absorbance of each well was measured at wavelengths of 450 nm using a SpectraMax M2 plate reader (Molecular Devices; Sunnyvale, CA, USA).
row,Structure (SMILES),"viability at 24 h, 10 µg/mL [%]"
1,"CC1(C)CC[C@]2(C(=O)O)CC[C@]3(C)C(=CC[C@@H]4[C@@]5(C)CC[C@H](O)C(C)(C)[C@@H]5CC[C@]43C)[C@@H]2C1 [Compound 1, Oleanolic acid, reference compound]",96.7
